Experiment: Interim pharmacokinetics, multiple-dose study (Example 5)
Type: in vivo, human
Protocol: Interim Pharmacokinetic results of the study were derived from plasma concentrations of 9-cis-retinyl acetate and its metabolites, measured throughout the study period at prescribed time points. The scope of this interim PK analysis encompasses samples from Cohort 1 including the placebo (n=2), 40 mg/m^2 (n=6) and 60 mg/m^2 (n=2) dose groups obtained in treatment cycles 1, 2 and 3.
The plasma samples were analyzed by liquid chromatography-mass spectrometry-mass spectrometry (LC/MS/MS) for parent drug and potential metabolites. Noncompartmental (NCA) pharmacokinetic (PK) parameters such as AUC were obtained using the WinNonlin software with observational determination of Cmax, tmax, and duration of concentrations above baseline (TD).

For `CC(=O)OC/C=C(C)/C=C/C=C(C)\C=C\C1=C(C)CCCC1(C)C` [9-cis-Retinyl acetate, (2E, 4E, 6Z, 8E)-3,7-dimethyl-9-(2,6,6-trimethylcyclohex-1-en-1-yl) nona-2,4,6,8-tetraen-1-yl acetate], the “accumulation of 9-cis-retinol and retinyl ester metabolites on multiple-dosing” value (40 mg/m^2, repeated seven day cycles) was “slight to modest accumulation”, the “accumulation of metabolites from cycle to cycle” value (40 mg/m^2, Cycles 1, 2 and 3) was “no accumulation being observed from cycle to cycle” and the plasma concentrations (Cohort 1, 40 and 60 mg/m^2, cycles 1-3) was “low and transient”.
